Test results taken from patent US11690922B2, “Lipid compound as well as lipid carrier, nucleic acid lipid nanoparticle composition and pharmaceutical preparation containing same” (Purecodon (Hong Kong) Biopharma Ltd., priority 2021, dated 2023).

Columns and labels:
[1] = Particle size, PDI, Zeta and entrapment efficiency of each LNP@mRNA; type: physicochemical; conditions: for Entrapment efficiency (%) / PDI / Particle size (nm) / Zeta (mV): luciferase mRNA; for particle size of the LNP@mRNA (in words): LNP@mRNA with cholesterol, DSPC, PEG-DMG (Example 25), compared among compounds 1-8
Protocol: Compounds 1-8 were respectively dissolved in ethanol together with cholesterol, DSPC, PEG-DMG at a molar ratio of 50:38.5:10:1.5, luciferase mRNA was dissolved in a 50 mM citric acid buffered saline solution with a pH of 4.0, a volume ratio of the two solutions was 1:3, two phases were rapidly mixed by using microfluidics and a buffer environment was replaced into PBS with a pH of 7.4 by using dialysis or a tangential flow, so as to remove ethanol, and eight LNP@mRNAs were respectively prepared.
Thus, it can be seen that the entrapment efficiency to the nucleic acid drug by the compound provided by the present invention is high, and, using this compound as a carrier can improve the in-vivo delivery efficiency of the nucleic acid drug.
Compounds 13, and 14 and cholesterol, DOPC, and PEG-DMG were dissolved in ethanol at a molar ratio of 50:38.5:10:1.5, luciferase mRNA was dissolved in a 50 mM citric acid buffered saline solution with a pH of 4.0, a volume ratio of the two solutions was 1:3, two phases were mixed rapidly by using microfluidics and a buffer environment was replaced into PBS with a pH of 7.4 by using dialysis or a tangential flow, so as to remove ethanol, and two LNP@mRNAs were respectively prepared.

[2] = Zeta electric potentials of LNP@mRNA under different pHs; type: physicochemical; conditions: Example 26 LNP (cholesterol, DOPC, PEG-DMG), FIG. 7
[3] = tested on: mice; experiment: Fluorescence intensity and organ distribution in mice 6 hours after injection of luciferase LNP@mRNA; type: in vivo; conditions: mouse, after 6 hours; for organ distribution of mRNA expression: intramuscular injection
Protocol: LNP@mRNAs prepared were respectively injected into a mouse body via a caudal vein or muscle, and after 6 hours, the fluorescence intensity and organ distribution in mice were tested. […] Therefore, a lipid compound with a specific structure can be chosen as a lipid carrier based on an organ in which the nucleic acid drug needs to be enriched.
LNP@mRNAs prepared were respectively injected into a mouse body via a caudal vein or muscle, and after 6 hours, the fluorescence intensity and organ distribution in mice were tested.

[4] = LNP@mRNA of compound:cholesterol:DSPC:PEG-DMG 50:38.5:10:1.5 molar, PBS pH 7.4 (Example 25)
[5] = LNP@mRNA of compound:cholesterol:DOPC:PEG-DMG 50:38.5:10:1.5 molar, PBS pH 7.4 (Example 26)

Structure (SMILES)	Entrapment efficiency (%) [1, 4] [%]	PDI [1, 4]	Particle size (nm) [1, 4] [nm]	Zeta (mV) [1, 4] [mV]	particle size of the LNP@mRNA (in words) [1]	further results
CCCCCCC(CCCC)C(=O)OCCCCOC(=O)CCN(CCCCCO)CCC(=O)OCCCCOC(=O)C(CCCC)CCCCCC (stereo not drawn) [Compound 8]	82	0.07	124	−12		
CCCCCCC(CCCC)C(=O)OCCCCOC(=O)CCN(CCO)CCC(=O)OCCCCOC(=O)C(CCCC)CCCCCC (stereo not drawn) [Compound 5]	80	0.10	114	−13		
CCCCCCCCC(CCCCCC)C(=O)OCCCCOC(=O)CCN(CCO)CCC(=O)OCCCCOC(=O)C(CCCCCC)CCCCCCCC (stereo not drawn) [Compound 1]	87	0.06	95	−9	small	
CCCCCCC(CCCC)C(=O)OCCCCOC(=O)CCN(CCCO)CCC(=O)OCCCCOC(=O)C(CCCC)CCCCCC (stereo not drawn) [Compound 6]	72	0.06	125	−12		
CCCCCCC(CCCC)C(=O)OCCCCOC(=O)CCN(CCCn1ccnc1)CCC(=O)OCCCCOC(=O)C(CCCC)CCCCCC (stereo not drawn) [Compound 13]						Zeta electric potential of the LNP@mRNA ([2]; pH about 2): strong positive electricity; Zeta electric potential of the LNP@mRNA ([2]; pH close to 5): electric neutrality; Zeta electric potential of the LNP@mRNA ([2]; pH greater than 8): strong electronegativity; maximum fluorescence of intramuscular injection of LNP@mRNA (effect) ([3]; Example 26 LNP (DOPC), comparison of compounds 13 and 14, FIG. 4): better; Entrapment efficiency (%) [1, 5]: 85%; PDI [1, 5]: 0.03; Particle size (nm) [1, 5]: 156 nm; Zeta (mV) [1, 5]: −19 mV
CCCCCCCCC(CCCCCC)C(=O)OCCCCOC(=O)CCN(CCCO)CCC(=O)OCCCCOC(=O)C(CCCCCC)CCCCCCCC (stereo not drawn) [Compound 2]	86	0.07	68	−14	small	
CCCCCCC(CCCC)C(=O)OCCCCOC(=O)CCN(CCCCO)CCC(=O)OCCCCOC(=O)C(CCCC)CCCCCC (stereo not drawn) [Compound 7]	82	0.05	116	−18		maximum fluorescence of intramuscular injection of LNP@mRNA (effect) ([3]; Example 25 LNP (DSPC), comparison among compounds 1-8, FIG. 1): better; organ distribution of mRNA expression ([3]; Example 25 LNP (DSPC), FIG. 2 and 3): manly expressed in spleen
CCCCCCCCC(CCCCCC)C(=O)OCCCCOC(=O)CCN(CCCn1ccnc1)CCC(=O)OCCCCOC(=O)C(CCCCCC)CCCCCCCC (stereo not drawn) [Compound 14]						organ distribution of mRNA expression ([3]; Example 26 LNP (DOPC), FIG. 5 and 6): mainly expressed in spleen; Entrapment efficiency (%) [1, 5]: 87%; PDI [1, 5]: 0.07; Particle size (nm) [1, 5]: 122 nm; Zeta (mV) [1, 5]: −11 mV
CCCCCCCCC(CCCCCC)C(=O)OCCCCOC(=O)CCN(CCCCCO)CCC(=O)OCCCCOC(=O)C(CCCCCC)CCCCCCCC (stereo not drawn) [Compound 4]	82	0.09	77	−12	small	
CCCCCCCCC(CCCCCC)C(=O)OCCCCOC(=O)CCN(CCCCO)CCC(=O)OCCCCOC(=O)C(CCCCCC)CCCCCCCC (stereo not drawn) [Compound 3]	86	0.07	76	−15	small	
